In ChEMBL document CHEMBL1201862, “PubChem BioAssay data set” (2004):
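A five-concentration, 48-hour dose response in 96-well plates underlies each endpoint, interpolated linearly between surrounding concentrations. Here, GI50 denotes the concentration required for 50% inhibition of growth.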 Calls of active or inactive are those of the source. Rule as the data show it: active = GI50 up to about 1.1 µM and inactive = higher.

What was measured:
Experiment in all cases: NCI anticancer screen, dose series, 48 h
TK-10 = test system: TK-10
SR = test system: SR
UO-31 = test system: UO-31
SK-OV-3 = test system: SK-OV-3
LOX IMVI = test system: LOX IMVI
MDA-MB-231 = test system: MDA-MB-231
HT-29 = test system: HT-29
EKVX = test system: EKVX
Malme-3M = test system: Malme-3M
ACHN = test system: ACHN
UACC-62 = test system: UACC-62
CAKI-1 = test system: CAKI-1
SK-MEL-5 = test system: SK-MEL-5
CCRF-CEM = test system: CCRF-CEM
SW-620 = test system: SW-620
RXF 393 = test system: RXF 393
OVCAR-8 = test system: OVCAR-8
OVCAR-3 = test system: OVCAR-3
OVCAR-5 = test system: OVCAR-5

Measured: GI50

c1coc(C2=Nc3cccc4cccc(c34)N2)c1
inactive: TK-10 > 100 µM | SR > 100 µM | UO-31 16.2 µM | SK-OV-3 98.4 µM | LOX IMVI 41.9 µM | MDA-MB-231 34.6 µM | HT-29 23.2 µM | EKVX 55.2 µM | Malme-3M 93.8 µM | ACHN 22.1 µM | UACC-62 35.5 µM | CAKI-1 35.4 µM | SK-MEL-5 34.9 µM | CCRF-CEM 32.1 µM | SW-620 38.6 µM | RXF 393 25.9 µM | OVCAR-8 39.3 µM | OVCAR-3 24.2 µM

CN(C)CCCNc1ccnc2cccc([N+](=O)[O-])c12
inactive: TK-10 15.7 µM | SR > 100 µM | UO-31 13.3 µM | SK-OV-3 2.52 µM | LOX IMVI 13.6 µM | MDA-MB-231 17.7 µM | HT-29 12.1 µM | OVCAR-5 23 µM | EKVX 13.6 µM | Malme-3M 8.18 µM | ACHN 5 µM | CAKI-1 13.3 µM | SK-MEL-5 10.4 µM | CCRF-CEM 28.9 µM | SW-620 17.2 µM | RXF 393 25.5 µM | OVCAR-8 22 µM | OVCAR-3 5.22 µM

COc1cc2ncnc(NS(=O)(=O)c3cc4ccccc4s3)c2cc1OC
inactive: TK-10 > 100 µM | SR > 100 µM | UO-31 76 µM | SK-OV-3 > 100 µM | LOX IMVI > 100 µM | MDA-MB-231 > 100 µM | HT-29 > 100 µM | OVCAR-5 > 100 µM | EKVX 75 µM | Malme-3M > 100 µM | ACHN > 100 µM | UACC-62 89.1 µM | CAKI-1 > 100 µM | SK-MEL-5 > 100 µM | CCRF-CEM > 100 µM | SW-620 > 100 µM | RXF 393 29.8 µM | OVCAR-8 > 100 µM | OVCAR-3 > 100 µM

CN1C=COC1N=C1CCCCC1 (stereo not given)
inactive: TK-10 > 100 µM | SR > 100 µM | UO-31 50.9 µM | SK-OV-3 > 100 µM | LOX IMVI > 100 µM | MDA-MB-231 > 100 µM | HT-29 > 100 µM | OVCAR-5 > 100 µM | EKVX > 100 µM | Malme-3M > 100 µM | ACHN > 100 µM | UACC-62 > 100 µM | CAKI-1 3.74 µM | SK-MEL-5 > 100 µM | CCRF-CEM > 100 µM | SW-620 3.3 µM | RXF 393 > 100 µM | OVCAR-8 > 100 µM | OVCAR-3 > 100 µM

COc1cc2c(cc1OC)C13CC[N+]4(C)CC5=CCOC6CC(=O)N2C1C6C5CC34[O-] (stereo not given)
inactive: TK-10 > 100 µM | SR > 100 µM | UO-31 > 100 µM | SK-OV-3 > 100 µM | LOX IMVI > 100 µM | MDA-MB-231 > 100 µM | EKVX > 100 µM | Malme-3M > 100 µM | ACHN > 100 µM | UACC-62 > 100 µM | CAKI-1 > 100 µM | SK-MEL-5 > 100 µM | CCRF-CEM > 100 µM | SW-620 > 100 µM | RXF 393 > 100 µM | OVCAR-8 > 100 µM | OVCAR-3 > 100 µM

COC(=O)C(Cc1ccccc1I)C1=CCC2(CC1)OCCO2 (stereo not given)
inactive: TK-10 31.6 µM | SR 18 µM | UO-31 23.3 µM | SK-OV-3 36.9 µM | LOX IMVI 23.3 µM | MDA-MB-231 54.5 µM | HT-29 31.8 µM | OVCAR-5 11.3 µM | EKVX 47.6 µM | Malme-3M 22.9 µM | ACHN 36.6 µM | UACC-62 20 µM | CAKI-1 70 µM | SK-MEL-5 16.8 µM | CCRF-CEM 41.7 µM | SW-620 44.4 µM | RXF 393 14.2 µM | OVCAR-8 35.2 µM | OVCAR-3 20.8 µM
